Test results reported in US8158389B2, “Products and methods for in vivo secretion of monatin” (priority 2005, dated 2012).

Columns and labels:
E. coli MG1655 = experiment: Monatin excretion with 2.5 mM sodium decanoate, E. coli MG1655 strains with pUC19, robA or ramA (30, 48 h); assay type: cell-based, Escherichia coli
Source text: The strains used for the experiment included E. coli MG1655 : : aspC/proA/pProNdeDel together with the robA gene from E. coli cloned into the pUC19 vector. The control strain was E. coli MG1655 : : aspC/proA/pProNde along with the pUC19 vector. The robA gene was amplified from E. coli W3110 using primers 5′[…]3′ (SEQ ID NO. 20) and 5′[…]3′ (SEQ ID NO. 21), which introduced SalI and BamHI sites at the end of the amplified fragment. The PCR fragment was cloned between the SalI and BamHI sites of the vector pUC19 (GenBank/EMBL accession number L09137). For inoculum, the E. coli strains were grown overnight at 37° C. and 250 rpm in Luria-Bertani (“LB”) medium with 100 μg/mL ampicillin and 50 μg/mL kanamycin.
For the experimental treatments, Trp-1+glucose medium, a minimal medium that has been used for increased production of tryptophan in E. coli cells (Zeman et al. Folia Microbiol. 35:200-204, (1990)), was prepared as follows. To 800 mL nanopure water the following reagents were added: 2 g (NH4)2SO4 and 13.6 g KH2PO4. The pH was adjusted to 7.0, the volume was increased to 948 mL, and the medium was autoclaved. Following sterilization, 0.2 g MgSO4.7H2O, 0.01 g CaCl2.2H2O, and 0.5 mg FeSO4.7H2O were ad to the medium in a 1.8 mL volume followed by addition of 0.2 mL of Neidhardt's micronutrient solution. Neidhardt F. C., et al., “Culture medium for Enterobacteria,” J. Bacteriol. 119:736-746, (1974). Neidhardt's medium includes (per liter): 0.18 g (NH4)6(MO7)24-4H2O, 1.24 g H3BO3, 0.36 g CoCl2.6H2O, 0.12 g CuSO4 (anhydrous), 0.8 g MnCl2.4H2O, and 0.14 g ZnSO4.7H2O. A 50% glucose solution was prepared separately and sterile-filtered. Forty mL of glucose solution and 10 mL of 1 M 3-Morpholinopropanesulfonic acid (“MOPS”) buffer were added to the base medium (950 mL) for a 1 L final volume.
(§1) Conditions for the treatments included 250 rpm agitation throughout and 37° C. up to induction, then, 30° C. following induction. At 0.30-0.50 OD600 nm, induction of the plasmid genes was initiated. At induction, 1.0 mM IPTG, 0.5% L-arabinose, 0.5 mM pyridoxine hydrochloride, and 0.2 mLs of Balch's vitamins were added. Additions of 10 g/L L-tryptophan, 10 g/L sodium pyruvate, 0.04 mM pyridoxal-5′-phosphate (“PLP”) and 0.2% Tween® 20 (polyoxyethylene 20-sorbitan monolaurate) were made 3 hours following induction. Some treatments included 2.5 mM sodium decanoate addition at 3 hours following induction.
The strains used for the experiment included E. coli MG1655 : : aspC/proA/pProNdeDel together with the ramA gene from Enterobacter aerogenes cloned into the pUC19 vector (GenBank/EMBL accession number L09137). The control strain was E. coli MG1655 : : aspC/proA/pProNde along with the pUC19 vector. The ramA gene was amplified from E. aerogenes ATCC 13048 by using primers, 5′[…]3′ (SEQ ID NO. 22) and 5′[…]3′ (SEQ ID NO. 23), which introduced Sal I and BamH I sites at the end of the amplified fragment. The PCR fragment was cloned between the Sal I and BamH I sites of the vector pUC19 (GenBank/EMBL accession number L09137). For inoculum, the E. coli strains were grown overnight at 37° C. and 250 rpm in Luria-Bertani (“LB”) medium with 100 μg/mL ampicillin and 50 μg/mL kanamycin.
For the experimental treatments, Trp-1+glucose medium, a minimal medium that has been used for increased production of tryptophan in E. coli cells (Zeman et al. Folia Microbiol. 35:200-204, (1990)), was prepared as follows. To 800 mL nanopure water the following reagents were added: 2 g (NH4)2SO4 and 13.6 g KU2PO4. The pH was adjusted to 7.0, the volume was increased to 948 mL, and the medium was autoclaved. Following sterilization, 0.2 g MgSO4.7H2O, 0.01 g CaCl2.2H2O, and 0.5 mg FeSO4.7H2O were to the medium in a 1.8 mL volume followed by addition of 0.2 mL of Neidhardt's micronutrient solution. Neidhardt F. C., et al., “Culture medium for Enterobacteria,” J. Bacteriol. 119:736-746, (1974). […]

E. coli MG1655 ΔAcrAB = experiment: Monatin excretion with 2.5 mM sodium decanoate, E. coli MG1655 ΔAcrAB strains with pUC19, robA, ramA or baeR (24, 30, 48 h); assay type: cell-based, Escherichia coli
Method: as §1
Conditions for the treatments included 250 rpm agitation throughout and 37° C. up to induction, then, 30° C. following induction. At an OD600 nm between 0.30-0.50, induction of the plasmid genes was initiated. At induction, 1.0 mM IPTG, 0.5% L-arabinose, 0.5 mM pyridoxine hydrochloride, and 0.2 mLs of Balch's vitamins were added. Additions of 10 g/L L-tryptophan, 10 g/L sodium pyruvate, 0.04 mM pyridoxal-5′-phosphate (“PLP”) and 0.2% Tween® 20 (polyoxyethylene 20-sorbitan monolaurate) were made 3 hours following induction. Some treatments included 2.5 mM sodium decanoate addition at 3 hours following induction.
Conditions for the treatments included 250 rpm agitation throughout and 37° C. up to induction, then, 30° C. following induction. At 0.35-0.38 OD600 nm, induction of the plasmid genes was initiated. At induction, 1.0 mM IPTG, 0.5% L-arabinose, 0.5 mM pyridoxine hydrochloride, and 0.2 mLs of Balch's vitamins were added. Additions of 10 g/L L-tryptophan, 10 g/L sodium pyruvate, 0.04 mM pyridoxal-5′-phosphate (“PLP”) and 0.2% Tween® 20 (polyoxyethylene 20-sorbitan monolaurate) were made 3.5 hours following induction. At 24 hours after inoculation, another 10 g/L increment of sodium pyruvate was added to each flask. Some treatments included 2.5 mM sodium decanoate addition at 3.5 hours following induction.

[1] = E. coli MG1655::aspC proA pProNdedel pUC19 (control), n = 2
[2] = E. coli MG1655::aspC proA pProNdedel, ramA pUC19, n = 2
[3] = E. coli MG1655::aspC proA pProNdedel, robA pUC19, n = 2
[4] = ΔAcrAB::aspC proA pProNde del robA pUC19, n = 2
[5] = ΔAcrAB::aspC proA pProNde del, ramA pUC19, n = 2
[6] = ΔAcrAB::aspC proA pProNdedel, pUC19 (control), n = 2
[7] = ΔacrAB AspC ProA pProNde del BaeR pUC19, n = 2

CCCCCCCCCC(=O)[O-].[Na+] [sodium decanoate]
Monatin/dcw, 30 hours (E. coli MG1655; [1]): 4.66 mg/g
Monatin/dcw, 48 hours (E. coli MG1655; [1]): 4.31 mg/g
Monatin/dcw, 30 hours (E. coli MG1655; [2]): 3.69 mg/g
Monatin/dcw, 48 hours (E. coli MG1655; [2]): 13.90 mg/g
Monatin/dcw, 30 hours (E. coli MG1655; [3]): 6.91 mg/g
Monatin/dcw, 48 hours (E. coli MG1655; [3]): 25.62 mg/g
Monatin/dcw, 24 hours (E. coli MG1655 ΔAcrAB; [4]): 45.7 mg/g
Monatin/dcw, 30 hours (E. coli MG1655 ΔAcrAB; [4]): 58.6 mg/g
Monatin/dcw, 48 hours (E. coli MG1655 ΔAcrAB; [4]): 81.7 mg/g
Monatin/dcw, 24 hours (E. coli MG1655 ΔAcrAB; [5]): 32.3 mg/g
Monatin/dcw, 30 hours (E. coli MG1655 ΔAcrAB; [5]): 41.7 mg/g
Monatin/dcw, 48 hours (E. coli MG1655 ΔAcrAB; [5]): 61.1 mg/g
Monatin/dcw, 24 hours (E. coli MG1655 ΔAcrAB; [6]): 10.7 mg/g
Monatin/dcw, 30 hours (E. coli MG1655 ΔAcrAB; [6]): 29.7 mg/g
Monatin/dcw, 48 hours (E. coli MG1655 ΔAcrAB; [6]): 39.3 mg/g
Mean monatin per dry cell weight, 24 hours (E. coli MG1655 ΔAcrAB; [7]): 34.4 mg/g
Mean monatin per dry cell weight, 30 hours (E. coli MG1655 ΔAcrAB; [7]): 85.0 mg/g
Mean monatin per dry cell weight, 48 hours (E. coli MG1655 ΔAcrAB; [7]): 137.3 mg/g
